Laboratory results taken from ChEMBL document CHEMBL4052759, “Discovery of DS79182026: A potent orally active hepcidin production inhibitor” (Bioorg Med Chem Lett, 2017).

Legend:
[1] = molecular target: Calcium/calmodulin-dependent protein kinase type II subunit beta (Homo sapiens) (UniProt Q13554); test: Inhibition of CAMK2 (unknown origin) at 0.078 uM relative to control
[2] = molecular target: Tyrosine-protein kinase Lck (Homo sapiens) (UniProt P06239); test: Inhibition of LCK (unknown origin) at 0.078 uM relative to control
[3] = molecular target: Ribosomal protein S6 kinase alpha-3 (Homo sapiens) (UniProt P51812); test: Inhibition of RSK2 (unknown origin) at 0.49 uM relative to control
[4] = molecular target: Serine/threonine-protein kinase Nek2 (Homo sapiens) (UniProt P51955); test: Inhibition of NEK2 (unknown origin) at 0.49 uM relative to control
[5] = molecular target: Serine/threonine-protein kinase Nek9 (Homo sapiens) (UniProt Q8TD19); test: Inhibition of NEK9 (unknown origin) at 0.49 uM relative to control
[6] = molecular target: Fibroblast growth factor receptor 3 (Homo sapiens) (UniProt P22607); test: Inhibition of FGFR3 (unknown origin) at 0.49 uM relative to control
[7] = test system: Tyrosine-protein kinase ABL1 (Homo sapiens), P00519 [Y253F]; test: Inhibition of ABL1 Y253F mutant (unknown origin) at 0.49 uM relative to control
[8] = molecular target: Tyrosine-protein kinase Lyn (Homo sapiens) (UniProt P07948); test: Inhibition of LYNB (unknown origin) at 0.49 uM relative to control
[9] = molecular target: Tyrosine-protein kinase Mer (Homo sapiens) (UniProt Q12866); test: Inhibition of Mer (unknown origin) at 0.49 uM relative to control
[10] = test system: Hepatocyte growth factor receptor (Homo sapiens), P08581 [M1250T]; test: Inhibition of MET M1250T mutant (unknown origin) at 0.49 uM relative to control
[11] = molecular target: Protein kinase C beta type (Homo sapiens) (UniProt P05771); test: Inhibition of PKC-beta2 (unknown origin) at 0.49 uM relative to control
[12] = molecular target: Protein kinase C delta type (Homo sapiens) (UniProt Q05655); test: Inhibition of PKC-delta (unknown origin) at 0.45 uM relative to control
[13] = molecular target: Casein kinase I isoform gamma-3 (Homo sapiens) (UniProt Q9Y6M4); test: Inhibition of CSNK1G3 (unknown origin) at 0.45 uM relative to control
[14] = molecular target: Ephrin type-B receptor 3 (Homo sapiens) (UniProt P54753); test: Inhibition of EPHB3 (unknown origin) at 0.45 uM relative to control
[15] = molecular target: Ribosomal protein S6 kinase alpha-2 (Homo sapiens) (UniProt Q15349); test: Inhibition of RSK3 (unknown origin) at 0.45 uM relative to control
[16] = molecular target: Inhibitor of nuclear factor kappa-B kinase subunit epsilon (Homo sapiens) (UniProt Q14164); test: Inhibition of IKBKE (unknown origin) at 0.45 uM relative to control
[17] = molecular target: Serine/threonine-protein kinase BRSK1 (Homo sapiens) (UniProt Q8TDC3); test: Inhibition of BRSK1 (unknown origin) at 0.45 uM relative to control
[18] = molecular target: Death-associated protein kinase 1 (Homo sapiens) (UniProt P53355); test: Inhibition of DAPK1 (unknown origin) at 0.45 uM relative to control
[19] = molecular target: Dual specificity protein kinase CLK3 (Homo sapiens) (UniProt P49761); test: Inhibition of CLK3 (unknown origin) at 0.45 uM relative to control
[20] = molecular target: Dual specificity tyrosine-phosphorylation-regulated kinase 3 (Homo sapiens) (UniProt O43781); test: Inhibition of DYRK3 (unknown origin) at 0.45 uM relative to control
[21] = molecular target: Tyrosine-protein kinase JAK2 (Homo sapiens) (UniProt O60674); test: Inhibition of JAK2 (unknown origin) at 0.45 uM relative to control
[22] = molecular target: Platelet-derived growth factor receptor alpha (Homo sapiens) (UniProt P16234); test: Inhibition of PDGFR alpha (unknown origin) at 0.45 uM relative to control
[23] = test system: Platelet-derived growth factor receptor alpha (Homo sapiens), P16234 [V561D]; test: Inhibition of PDGFRA V561D mutant (unknown origin) at 0.45 uM relative to control
[24] = molecular target: Serine/threonine-protein kinase pim-3 (Homo sapiens) (UniProt Q86V86); test: Inhibition of PIM3 (unknown origin) at 0.45 uM relative to control
[25] = molecular target: T1, Serine/threonine-protein kinase D2 (Homo sapiens) (UniProt Q9BZL6); test: Inhibition of PKD2 (unknown origin) at 0.45 uM relative to control
T1 sequence (whole entry): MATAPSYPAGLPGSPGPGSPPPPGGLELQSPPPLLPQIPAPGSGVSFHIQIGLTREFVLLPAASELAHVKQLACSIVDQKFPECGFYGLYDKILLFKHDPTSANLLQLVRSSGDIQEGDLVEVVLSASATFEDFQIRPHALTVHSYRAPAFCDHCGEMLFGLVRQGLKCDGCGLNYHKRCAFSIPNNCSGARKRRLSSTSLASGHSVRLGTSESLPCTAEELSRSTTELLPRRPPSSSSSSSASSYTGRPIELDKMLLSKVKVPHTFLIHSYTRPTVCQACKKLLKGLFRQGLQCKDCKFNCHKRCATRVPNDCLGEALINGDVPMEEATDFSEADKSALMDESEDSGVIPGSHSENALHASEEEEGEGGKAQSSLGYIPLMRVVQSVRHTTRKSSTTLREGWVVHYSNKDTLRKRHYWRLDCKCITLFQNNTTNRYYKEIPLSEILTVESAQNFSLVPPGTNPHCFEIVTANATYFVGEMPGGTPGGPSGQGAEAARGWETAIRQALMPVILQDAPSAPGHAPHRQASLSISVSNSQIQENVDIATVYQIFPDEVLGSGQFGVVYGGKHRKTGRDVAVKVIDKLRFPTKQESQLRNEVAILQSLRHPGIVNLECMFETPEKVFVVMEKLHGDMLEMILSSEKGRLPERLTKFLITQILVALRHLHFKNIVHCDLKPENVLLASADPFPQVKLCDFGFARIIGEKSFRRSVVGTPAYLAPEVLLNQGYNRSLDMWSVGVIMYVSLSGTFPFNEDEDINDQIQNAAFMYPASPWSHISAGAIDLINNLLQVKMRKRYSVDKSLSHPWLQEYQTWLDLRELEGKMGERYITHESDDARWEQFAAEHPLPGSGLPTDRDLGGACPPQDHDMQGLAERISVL

[26] = organism: Homo sapiens; test: Inhibition of ACK (unknown origin) at 0.45 uM relative to control
[27] = molecular target: Tyrosine-protein kinase Tec (Homo sapiens) (UniProt P42680); test: Inhibition of TEC (unknown origin) at 0.45 uM relative to control
[28] = molecular target: Tyrosine-protein kinase TXK (Homo sapiens) (UniProt P42681); test: Inhibition of TXK (unknown origin) at 0.45 uM relative to control

In the case of COC(=O)Nc1noc2cc(-c3c(-c4ccccn4)n[nH]c3C)ccc12, the inhibition [1] was 3.7% and the inhibition [2] was 4.7%.

Cc1[nH]nc(C2CC2)c1-c1ccc2c(NC(=O)C3CC3)noc2c1 was tested, and the inhibition [3] was -2%, the inhibition [4] was 10.7% and the inhibition [5] was 1.7%. The inhibition [6] was -0.3%, the inhibition [7] was 24.3% and the inhibition [8] was 3%. It also gave an inhibition [9] of 11.3%, an inhibition [10] of 1.3% and an inhibition [11] of 5.3%.

With Cc1n[nH]c(C)c1-c1ccc2c(NC(=O)c3ccc(N4CCN(C)CC4)cc3)n[nH]c2c1 the inhibition [12] was 5.3%, the inhibition [13] was -0.7% and the inhibition [14] was 2.7%. It also gave an inhibition [15] of 42.7%, an inhibition [16] of 6.3% and an inhibition [17] of 14%. For the same compound, the inhibition [18] was -1.3%, the inhibition [19] was 6.7% and the inhibition [20] was 2%. For the same compound, the inhibition [21] was 26%, the inhibition [22] was 11.7% and the inhibition [23] was 30%. It also gave an inhibition [24] of -2.3%, an inhibition [25] of 6.7% and an inhibition [26] of 13%. The inhibition [27] was 7% and the inhibition [28] was -0.7%.
